Test results from the supplement of paper PMC10307832.

What was measured:
Experiment in all cases: relative viability (nuclei count vs DMSO), 5 days (fraction); higher = more cells survive
[1] = compound: CN(C)C[C@@H]1CCn2cc(c3ccccc32)C2=C(C(=O)NC2=O)c2cn(c3ccccc23)CCO1 [Ruboxistaurin] + COc1cccc2cc(-c3nc([C@H]4CC[C@H](C(=O)O)CC4)n4ncnc(N)c34)[nH]c12 [OSI-027] (partner 0.5 µM)
How it was run: (§1)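 Lung cancer cell lines in 1536-well plates were dosed by pin tool the day after seeding, either with one drug alone or with a fixed anchor-drug dose plus five library-drug doses (not always all listed) in √10 steps. After 5 days, cells were fixed and their nuclei stained in one step (final 0.05% Triton X-100, 1% formaldehyde, 1 ug/ml Hoechst), then counted on 4× images. Relative viability is the nuclei count in treated wells divided by that in vehicle wells. Values are medians of duplicate plates.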

[2] = compound: CN(C)C[C@@H]1CCn2cc(c3ccccc32)C2=C(C(=O)NC2=O)c2cn(c3ccccc23)CCO1 [Ruboxistaurin] + CC(C)C[C@H](NC(=O)[C@H](Cc1ccccc1)NC(=O)c1cnccn1)B(O)O [Bortezomib] (partner 0.002 µM)
How it was run: as §1

[3] = compound: CN(C)C[C@@H]1CCn2cc(c3ccccc32)C2=C(C(=O)NC2=O)c2cn(c3ccccc23)CCO1 [Ruboxistaurin] + Cc1cc(Nc2cc(N3CCN(C)CC3)nc(Sc3ccc(NC(=O)C4CC4)cc3)n2)n[nH]1 [Tozasertib] (partner 0.1 µM)
How it was run: as §1

[4] = compound: CN(C)C[C@@H]1CCn2cc(c3ccccc32)C2=C(C(=O)NC2=O)c2cn(c3ccccc23)CCO1 [Ruboxistaurin] + CC(=O)c1c(C)c2cnc(Nc3ccc(N4CCNCC4)cn3)nc2n(C2CCCC2)c1=O [Palbociclib] (partner 0.5 µM)
How it was run: as §1

[5] = compound: CN(C)C[C@@H]1CCn2cc(c3ccccc32)C2=C(C(=O)NC2=O)c2cn(c3ccccc23)CCO1 [Ruboxistaurin] + Nc1nc2[nH]cc(CCc3ccc(C(=O)N[C@@H](CCC(=O)O)C(=O)O)cc3)c2c(=O)[nH]1 [Pemetrexed] (partner 0.2 µM)
How it was run: as §1

NCI-H647
relative viability ([1]; first compound 0.08 µM): 0.754
relative viability ([1]; first compound 0.8 µM): 0.532
relative viability ([1]; first compound 2.53 µM): 0.432
relative viability ([1]; first compound 8 µM): 0.42
relative viability ([2]; first compound 0.08 µM): 1.21
relative viability ([2]; first compound 0.8 µM): 0.817
relative viability ([2]; first compound 2.53 µM): 0.869
relative viability ([2]; first compound 8 µM): 1.3
relative viability ([3]; first compound 0.08 µM): 0.199
relative viability ([3]; first compound 0.8 µM): 0.272
relative viability ([3]; first compound 2.53 µM): 0.369
relative viability ([3]; first compound 8 µM): 0.172
relative viability ([4]; first compound 0.08 µM): 0.473
relative viability ([4]; first compound 0.8 µM): 0.395
relative viability ([4]; first compound 2.53 µM): 0.432
relative viability ([4]; first compound 8 µM): 0.415
relative viability ([5]; first compound 0.08 µM): 0.173
relative viability ([5]; first compound 0.8 µM): 0.222
relative viability ([5]; first compound 2.53 µM): 0.196
relative viability ([5]; first compound 8 µM): 0.161

A-427
relative viability ([1]; first compound 0.08 µM): 0.506
relative viability ([1]; first compound 0.8 µM): 0.406
relative viability ([1]; first compound 2.53 µM): 0.458
relative viability ([1]; first compound 8 µM): 0.343
relative viability ([2]; first compound 0.08 µM): 1.01
relative viability ([2]; first compound 0.8 µM): 0.952
relative viability ([2]; first compound 2.53 µM): 0.97
relative viability ([2]; first compound 8 µM): 0.731
relative viability ([3]; first compound 0.08 µM): 0.19
relative viability ([3]; first compound 0.8 µM): 0.184
relative viability ([3]; first compound 2.53 µM): 0.232
relative viability ([3]; first compound 8 µM): 0.157
relative viability ([4]; first compound 0.08 µM): 0.554
relative viability ([4]; first compound 0.8 µM): 0.524
relative viability ([4]; first compound 2.53 µM): 0.5
relative viability ([4]; first compound 8 µM): 0.538
relative viability ([5]; first compound 0.08 µM): 0.994
relative viability ([5]; first compound 0.8 µM): 0.926
relative viability ([5]; first compound 2.53 µM): 0.958
relative viability ([5]; first compound 8 µM): 0.923

LXF-289
relative viability ([1]; first compound 0.08 µM): 0.804
relative viability ([1]; first compound 0.8 µM): 0.74
relative viability ([1]; first compound 2.53 µM): 0.9
relative viability ([1]; first compound 8 µM): 0.623
relative viability ([2]; first compound 0.08 µM): 1.03
relative viability ([2]; first compound 0.8 µM): 0.941
relative viability ([2]; first compound 2.53 µM): 0.976
relative viability ([2]; first compound 8 µM): 1.06
relative viability ([3]; first compound 0.08 µM): 0.216
relative viability ([3]; first compound 0.8 µM): 0.157
relative viability ([3]; first compound 2.53 µM): 0.195
relative viability ([3]; first compound 8 µM): 0.209
relative viability ([4]; first compound 0.08 µM): 0.589
relative viability ([4]; first compound 0.8 µM): 0.542
relative viability ([4]; first compound 2.53 µM): 0.571
relative viability ([4]; first compound 8 µM): 0.588
relative viability ([5]; first compound 0.08 µM): 0.884
relative viability ([5]; first compound 0.8 µM): 0.91
relative viability ([5]; first compound 2.53 µM): 0.906
relative viability ([5]; first compound 8 µM): 1.02

NCI-H1437
relative viability ([1]; first compound 0.08 µM): 0.985
relative viability ([1]; first compound 0.8 µM): 0.793
relative viability ([1]; first compound 2.53 µM): 0.835
relative viability ([1]; first compound 8 µM): 0.804
relative viability ([2]; first compound 0.08 µM): 0.64
relative viability ([2]; first compound 0.8 µM): 0.461
relative viability ([2]; first compound 2.53 µM): 0.526
relative viability ([2]; first compound 8 µM): 0.516
relative viability ([3]; first compound 0.08 µM): 0.434
relative viability ([3]; first compound 0.8 µM): 0.365
relative viability ([3]; first compound 2.53 µM): 0.378
relative viability ([3]; first compound 8 µM): 0.417
relative viability ([4]; first compound 0.08 µM): 0.337
relative viability ([4]; first compound 0.8 µM): 0.302
relative viability ([4]; first compound 2.53 µM): 0.303
relative viability ([4]; first compound 8 µM): 0.308
relative viability ([5]; first compound 0.08 µM): 0.309
relative viability ([5]; first compound 0.8 µM): 0.299
relative viability ([5]; first compound 2.53 µM): 0.315
relative viability ([5]; first compound 8 µM): 0.313

RERF-LC-KJ
relative viability ([1]; first compound 0.08 µM): 0.627
relative viability ([1]; first compound 0.8 µM): 0.497
relative viability ([1]; first compound 2.53 µM): 0.461
relative viability ([1]; first compound 8 µM): 0.415
relative viability ([2]; first compound 0.08 µM): 1.09
relative viability ([2]; first compound 0.8 µM): 0.992
relative viability ([2]; first compound 2.53 µM): 1.1
relative viability ([2]; first compound 8 µM): 0.937
relative viability ([3]; first compound 0.08 µM): 0.515
relative viability ([3]; first compound 0.8 µM): 0.401
relative viability ([3]; first compound 2.53 µM): 0.49
relative viability ([3]; first compound 8 µM): 0.462
relative viability ([4]; first compound 0.08 µM): 1.17
relative viability ([4]; first compound 0.8 µM): 0.934
relative viability ([4]; first compound 2.53 µM): 1.12
relative viability ([4]; first compound 8 µM): 0.995
relative viability ([5]; first compound 0.08 µM): 0.48
relative viability ([5]; first compound 0.8 µM): 0.46
relative viability ([5]; first compound 2.53 µM): 0.483
relative viability ([5]; first compound 8 µM): 0.446

HCC-44
relative viability ([1]; first compound 0.08 µM): 0.576
relative viability ([1]; first compound 0.8 µM): 0.403
relative viability ([1]; first compound 2.53 µM): 0.481
relative viability ([1]; first compound 8 µM): 0.59
relative viability ([2]; first compound 0.08 µM): 0.956
relative viability ([2]; first compound 0.8 µM): 0.868
relative viability ([2]; first compound 2.53 µM): 0.983
relative viability ([2]; first compound 8 µM): 0.969
relative viability ([3]; first compound 0.08 µM): 1.05
relative viability ([3]; first compound 0.8 µM): 0.919
relative viability ([3]; first compound 2.53 µM): 1.1
relative viability ([3]; first compound 8 µM): 1.09
relative viability ([4]; first compound 0.08 µM): 0.986
relative viability ([4]; first compound 0.8 µM): 1
relative viability ([4]; first compound 2.53 µM): 0.953
relative viability ([4]; first compound 8 µM): 0.968
relative viability ([5]; first compound 0.08 µM): 0.666
relative viability ([5]; first compound 0.8 µM): 0.556
relative viability ([5]; first compound 2.53 µM): 0.642
relative viability ([5]; first compound 8 µM): 0.638

EPLC-272H
relative viability ([1]; first compound 0.08 µM): 0.308
relative viability ([1]; first compound 0.8 µM): 0.266
relative viability ([1]; first compound 2.53 µM): 0.298
relative viability ([1]; first compound 8 µM): 0.249
relative viability ([2]; first compound 0.08 µM): 1.04
relative viability ([2]; first compound 0.8 µM): 0.691
relative viability ([2]; first compound 2.53 µM): 1.01
relative viability ([2]; first compound 8 µM): 1.01
relative viability ([3]; first compound 0.08 µM): 0.205
relative viability ([3]; first compound 0.8 µM): 0.247
relative viability ([3]; first compound 2.53 µM): 0.253
relative viability ([3]; first compound 8 µM): 0.247
relative viability ([4]; first compound 0.08 µM): 0.312
relative viability ([4]; first compound 0.8 µM): 0.352
relative viability ([4]; first compound 2.53 µM): 0.285
relative viability ([4]; first compound 8 µM): 0.317
relative viability ([5]; first compound 0.08 µM): 0.32
relative viability ([5]; first compound 0.8 µM): 0.359
relative viability ([5]; first compound 2.53 µM): 0.352
relative viability ([5]; first compound 8 µM): 0.325

NCI-H322M
relative viability ([1]; first compound 0.08 µM): 0.646
relative viability ([1]; first compound 0.8 µM): 0.514
relative viability ([1]; first compound 2.53 µM): 0.514
relative viability ([1]; first compound 8 µM): 0.377
relative viability ([2]; first compound 0.08 µM): 1.2
relative viability ([2]; first compound 0.8 µM): 1.16
relative viability ([2]; first compound 2.53 µM): 1.16
relative viability ([2]; first compound 8 µM): 1.28
relative viability ([3]; first compound 0.08 µM): 0.49
relative viability ([3]; first compound 0.8 µM): 0.426
relative viability ([3]; first compound 2.53 µM): 0.431
relative viability ([3]; first compound 8 µM): 0.346
relative viability ([4]; first compound 0.08 µM): 0.492
relative viability ([4]; first compound 0.8 µM): 0.47
relative viability ([4]; first compound 2.53 µM): 0.454
relative viability ([4]; first compound 8 µM): 0.384
relative viability ([5]; first compound 0.08 µM): 0.646
relative viability ([5]; first compound 0.8 µM): 0.528
relative viability ([5]; first compound 2.53 µM): 0.596
relative viability ([5]; first compound 8 µM): 0.47
